Results from patent US20210253520A1, “POLYMYXIN-BASED COMPOUNDS USEFUL AS ANTIBACTERIAL AGENTS” (UNIVERSITAT DE BARCELONA, priority 2018, published 2021).
Like-named read-outs stand apart in the source and are kept apart here. Numbered stars: 1 amine (or outer) side, 2 acyl side, 3 side chain; on linkers, the order of the positions; unused ones are H or OH. Bridge positions count the residues as written; N and C are the ends. Square brackets hold non-standard residues; d marks the D form. Peptide text beside a SMILES is read from it. * marks the point of attachment. X1 = C[C@@H](O)[C@@H](CS[*:1])N[*:2]; dGly(nOct) = CCCCCCCC[C@@H](N)C(=O)O; Hica(2S) = CC(C)C[C@H](O)C(=O)O; Octanoyl = CCCCCCCC(=O)*; Dab = NCC[C@H](N)C(=O)O

Tests used:
Swiss CD-1 female mice = assay: Nephrotoxicity study, histopathological scoring of kidney lesions; format: in vivo; design: key to Group Score (GS): mean of per-animal summed 0-4 lesion scores; higher = more nephrotoxic; key to Animal Score (AS), Partial AS: sum of 0-4 lesion parameter scores; higher = more nephrotoxic; conditions: for Mice found dead / Group Score (GS) / Cell desquamation, Partial AS / Cell vacuolization, Partial AS / Cloudy swelling, Partial AS / Tubular casts, Partial AS / Tubular dilation, Partial AS / Tubular necrosis, Partial AS / Animal Score (AS), Partial AS / AS, Partial AS / Tubular dilaion, Partial AS: total 72 mg/Kg; for Animal Score (AS), Partial AS: sum over all mice; for nephrotoxicity in mice, in words: nephrotoxicity tests carried out in mice, statement of the background
Description: Swiss CD-1 female mice weighing approximately 20-24 g (JANVIER Labs) were used, housed in an individually ventilated cage system under specific pathogen-free conditions, and water and food supplied ad libitum. This study plan and the conduct of the study were subjected to review by the Scientific Park of Barcelona Ethical Review Process with the current study procedure Code CEEA (AR) 9377-P2. Mice were administered at a dose of 12 mg/Kg every 2 hours for a total of 6 administrations (total dose 72 mg/Kg), unless otherwise stated. After 20 h, animals were anesthesized with isoflurane, kidneys extracted and prepared for histopathological evaluation, and finally animales were sacrificed. Kidney lesions (tubule dilation, necrosis, tubule casts, cell vacuolization, cell desquamation, and cell swelling) were quantified by microscopical observation (see for instance, Roberts, ACS Infect. Dis., 2015, 1, 568). Each one of these parameters was scored with values from 0 to 4 for each animal, as a global result of observations in kidney. Partial scores have been added up to obtain a final score for each animal (Animal Score, AS). The mean of animal score has been obtained to define the Group Score (GS). The higher the score, the more nephrotoxic a compound is. The nephrotoxicity score has been determined as according to the following table of approximated values: […]

K. pneumoniae MB674 [1] = format: cell-based; conditions: for antibacterial activity (MIC): MB674
Description: (§1) The antibacterial activity of the polymyxin lipopeptides was measured at ISGlobal following the microdilution test to determine the Minimal Inhibitory Concentrations (MIC) in sterile 96-well polypropilene plates. The concentration range was 32 a […] in Iso-Sensitest broth (Oxoid, ThermoFisher). The results were carried out in triplicate and the highest MIC is the one shown. Bacterial strains were grown in blood agar plates at 37° C. for 17 h. Fresh colonies were used to prepare a McFarland 0.5 solution that was finally added to the plates at 1 to 100 dilution
(§2) Samples of sensitive and multi-drug resistant bacteria were: E. coli ATCC 25922 E. coli MB1410; K. pneumoniae MB674; P. aeruginosa ATCC 27853; P. aeruginosa 36A.

E. coli MB1410 [2] = assay: microbe, parasite or virus in culture; format: cell-based; conditions: for antibacterial activity (MIC): MB1410
Description: as §1, §2

P. aeruginosa 36A [3] = assay: microbe, parasite or virus in culture; format: cell-based; conditions: for antibacterial activity (MIC): 36A
Description: as §1, §2

E. coli ATCC 25922 [4] = assay: microbe, parasite or virus in culture; format: cell-based; conditions: for antibacterial activity (MIC): ATCC 25922
Description: as §1, §2

P. aeruginosa ATCC 27853 [5] = assay: microbe, parasite or virus in culture; format: cell-based; conditions: for antibacterial activity (MIC): ATCC 27853
Description: as §1, §2

P. aeruginosa 36A [6] = conditions: comparative examples, extracted from Scientific Reports 5:10558 or WO2017093210A1; cited from earlier work
K. pneumoniae MB674 [7] = conditions: comparative examples, extracted from Scientific Reports 5:10558 or WO2017093210A1; cited from earlier work
E. coli MB1410 [8] = conditions: comparative examples, extracted from Scientific Reports 5:10558 or WO2017093210A1; cited from earlier work
P. aeruginosa ATCC 27853 [9] = conditions: comparative examples, extracted from Scientific Reports 5:10558 or WO2017093210A1; cited from earlier work
E. coli ATCC 25922 [10] = conditions: comparative examples, extracted from Scientific Reports 5:10558 or WO2017093210A1; cited from earlier work
[11] = Table 6, 12 mg/Kg every 2 hours × 6, subcutaneous
[12] = Table 6, mean of animal scores, 12 mg/Kg every 2 hours × 6, subcutaneous
[13] = Table 6, sum of mouse scores, 12 mg/Kg every 2 hours × 6, subcutaneous
[14] = Table 8, 12 mg/Kg every 2 hours × 6 sc, 3 mice

Molecule | Mice found dead (Swiss CD-1 female mice; [11]) | Group Score (GS) (Swiss CD-1 female mice; [12]) | Cell desquamation, Partial AS (Swiss CD-1 female mice; [13]) | Cell vacuolization, Partial AS (Swiss CD-1 female mice; [13]) | Cloudy swelling, Partial AS (Swiss CD-1 female mice; [13]) | Tubular casts, Partial AS (Swiss CD-1 female mice; [13]) | Tubular dilation, Partial AS (Swiss CD-1 female mice; [13]) | Tubular necrosis, Partial AS (Swiss CD-1 female mice; [13]) | Animal Score (AS), Partial AS (Swiss CD-1 female mice; [11]) | antibacterial activity (MIC) (K. pneumoniae MB674 [1]) [µg/mL] | antibacterial activity (MIC) (E. coli MB1410 [2]) [µg/mL] | antibacterial activity (MIC) (P. aeruginosa 36A [3]) [µg/mL] | antibacterial activity (MIC) (E. coli ATCC 25922 [4]) [µg/mL] | antibacterial activity (MIC) (P. aeruginosa ATCC 27853 [5]) [µg/mL] | antibacterial activity (MIC) (P. aeruginosa 36A [6]) [µg/mL] | antibacterial activity (MIC) (K. pneumoniae MB674 [7]) [µg/mL] | antibacterial activity (MIC) (E. coli MB1410 [8]) [µg/mL] | antibacterial activity (MIC) (P. aeruginosa ATCC 27853 [9]) [µg/mL] | antibacterial activity (MIC) (E. coli ATCC 25922 [10]) [µg/mL] | Group Score (GS) (Swiss CD-1 female mice; [14]) | other results
CCCCCCCC[C@@H](N)C(=O)N[C@H](C(=O)N[C@@H](CCN)C(=O)N[C@H]1CSSC[C@H]([C@@H](C)O)NC(=O)[C@H](CCN)NC(=O)[C@H](CCN)NC(=O)[C@H](CC(C)C)OC(=O)[C@@H](CC(C)C)NC(=O)[C@H](CCN)NC1=O)[C@@H](C)O [Example 8, DAdec-Thr-Dab-cyclo(S-S)[Cys-Dab-DLeu-OLe-Dab-Dab-Ttr]] (H-[dGly(nOct)]T[Dab]C[Dab][dL][Hica(2S)][Dab][Dab]; linker 4-C via X1) | None | 0 | 0 | 0 | 0 | 0 | 0 | 0 | 0 | 1 | 1 | 1 | 2 | 2 | – | – | – | – | – | – | –
CCCCCCCC(=O)N[C@@H](CCN)C(=O)N[C@H](C(=O)N[C@@H](CCN)C(=O)N[C@H]1CSSC[C@H]([C@@H](C)O)NC(=O)[C@H](CCN)NC(=O)[C@H](CCN)NC(=O)[C@H](CC(C)C)OC(=O)[C@@H](Cc2ccccc2)NC(=O)[C@H](CCN)NC1=O)[C@@H](C)O [Example 9, Octanoyl-Dab-Thr-Dab-cyclo(S-S)[Cys-Dab-DPhe-OLe-Dab-Dab-Ttr]] (Octanoyl-[Dab]T[Dab]C[Dab][dF][Hica(2S)][Dab][Dab]; linker 4-C via X1) | 1 | 0 | 0 | 0 | 0 | 0 | 0 | 0 | 0 | 1 | 1 | 2 | 4 | 2 | – | – | – | – | – | – | –
CCCCCCCC[C@@H](N)C(=O)N[C@H](C(=O)N[C@@H](CCN)C(=O)N[C@H]1CSSC[C@H]([C@@H](C)O)NC(=O)[C@H](CCN)NC(=O)[C@H](CCN)NC(=O)[C@H](CC(C)C)OC(=O)[C@@H](Cc2ccccc2)NC(=O)[C@H](CCN)NC1=O)[C@@H](C)O [Example 10, DAdec-Thr-Dab-cyclo(S-S)[Cys-Dab-DPhe-Ole-Dab-Dab-Ttr]] (H-[dGly(nOct)]T[Dab]C[Dab][dF][Hica(2S)][Dab][Dab]; linker 4-C via X1) | None | 0 | 0 | 0 | 0 | 0 | 0 | 0 | 0 | 2 | 1 | 2 | 2 | 2 | – | – | – | – | – | – | –
Colistin [Col.] | – | – | – | – | – | – | – | – | – | – | – | – | – | – | 1 | 1 | 0.5 | 2 | 0.5 | – | MIC (K. pneumoniae MB674 [1]; resistance profile of strain K. pneumoniae MB674, Table 3): 0.2 µg/mL; MIC (E. coli MB1410 [2]; resistance profile of strain E. coli MB1410, Table 3): 0.75 µg/mL; MIC (P. aeruginosa 36A [3]; resistance profile of strain P. aeruginosa 36A, Table 3): 1 µg/mL; MIC (E. coli ATCC 25922 [4]; resistance profile of strain E. coli ATCC 25922, Table 3): 0.5 µg/mL; MIC (P. aeruginosa ATCC 27853 [5]; resistance profile of strain P. aeruginosa ATCC 27853, Table 3): 2 µg/mL
DAoc-Thr-Dab-cyclo(S-S)[Cys-Dab-DAoc-Leu-Dab-Dab-DCys] [compound 4] | – | – | – | – | – | – | – | – | – | – | – | – | – | – | 2 | 2 | 4 | 2 | 4 | All mice dead | Mice found dead (Swiss CD-1 female mice; [14]): 3; nephrotoxicity in mice, in words (Swiss CD-1 female mice): showed nephrotoxicity
DAoc-Thr-Dab-cyclo(S-S)[Cys-Dab-DNIe-Leu-Dab-Dab-DCys] [compound 5] | – | – | – | – | – | – | – | – | – | – | – | – | – | – | 2 | 8 | 8 | 4 | 16 | 4.3 | AS, Partial AS (Swiss CD-1 female mice; [14]): 13; Cell vacuolization, Partial AS (Swiss CD-1 female mice; [14]): 0; Cloudy swelling, Partial AS (Swiss CD-1 female mice; [14]): 4; Mice found dead (Swiss CD-1 female mice; [14]): none; Tubular casts, Partial AS (Swiss CD-1 female mice; [14]): 3; Tubular dilaion, Partial AS (Swiss CD-1 female mice; [14]): 6; Tubular necrosis, Partial AS (Swiss CD-1 female mice; [14]): 0; nephrotoxicity in mice, in words (Swiss CD-1 female mice): showed nephrotoxicity
Heptanoyl-Dab-Thr-Dab-cyclo(S-S)[Cys-Dab-DAoc-Nle-Dab-Dab-DCys] [compound 3] | – | – | – | – | – | – | – | – | – | – | – | – | – | – | 2 | 2 | 2 | 2 | 16 | 8 | AS, Partial AS (Swiss CD-1 female mice; [14]): 8; Cell vacuolization, Partial AS (Swiss CD-1 female mice; [14]): 3; Mice found dead (Swiss CD-1 female mice; [14]): 2 dead; Tubular dilaion, Partial AS (Swiss CD-1 female mice; [14]): 2; Tubular necrosis, Partial AS (Swiss CD-1 female mice; [14]): 3; nephrotoxicity in mice, in words (Swiss CD-1 female mice): showed nephrotoxicity
